Type in all cases: functional, cell-based
One test concerns HeLa. Put plainly: Antiproliferative activity against human HeLa cells assessed as inhibition of cell growth by MTT assay.
Another test deals with A549. Put plainly: Antiproliferative activity against human A549 cells assessed as inhibition of cell growth by MTT assay.
A further test deals with MCF7. Put plainly: Antiproliferative activity against human MCF7 cells assessed as inhibition of cell growth by MTT assay.
In another test the test system is HT-29. Briefly: Antiproliferative activity against human HT-29 cells assessed as inhibition of cell growth by MTT assay.
The subject of the next test is HepG2. Briefly: Antiproliferative activity against human HepG2 cells assessed as inhibition of cell growth by MTT assay.

Turning to `COc1cc(/C=C/c2cc(/C=C/c3ccc(OCCCO[N+](=O)[O-])c(OC)c3)n(-c3ccccn3)n2)ccc1OCCCO[N+](=O)[O-]`, the IC50 with HeLa, with A549, in the test with MCF7, in the test on HT-29 and with HepG2 was > 50 µM in each case.

For the molecule `COc1cc(/C=C/c2cc(/C=C/c3ccc(OCCO[N+](=O)[O-])c(OC)c3)n(-c3ccc(F)cc3)n2)ccc1OCCO[N+](=O)[O-]`, the IC50 with HeLa, with A549, in the test on MCF7, in the test with HT-29 and in the test on HepG2 was > 50 µM in each case.

With `COc1cc(/C=C/c2cc(/C=C/c3ccc(OCCO[N+](=O)[O-])c(OC)c3)n(-c3ccc(C(F)(F)F)cc3)n2)ccc1OCCO[N+](=O)[O-]`, the IC50 in the test on HeLa, with A549, in the test with MCF7, with HT-29 and with HepG2 was > 50 µM throughout.

Consider `COc1cc(/C=C/C(=O)CC(=O)/C=C/c2ccc(O)c(OC)c2)ccc1O` [CURCUMIN], for which the IC50 is > 50 µM in the test on HeLa; 24.6 µM in the test with A549; 19.9 µM with MCF7; 22.9 µM with HT-29; > 50 µM in the test with HepG2.

For `COc1cc(/C=C/c2cc(/C=C/c3ccc(OCCCCO[N+](=O)[O-])c(OC)c3)n(-c3ccccc3)n2)ccc1OCCCCO[N+](=O)[O-]`, the IC50 with HeLa, in the test on A549, with MCF7, in the test on HT-29 and in the test on HepG2 was > 50 µM each time.

For `COc1cc(/C=C/c2cc(/C=C/c3ccc(OCC4CC4)c(OC)c3)n(-c3ccc(C(=O)OCCCCO[N+](=O)[O-])cc3)n2)ccc1OCC1CC1`, the IC50 in the test on HeLa, in the test with A549, in the test with MCF7, with HT-29 and in the test with HepG2 was > 50 µM in each case.

On to `COc1cc(/C=C/c2cc(/C=C/c3ccc(OCCCCO[N+](=O)[O-])c(OC)c3)n(-c3ccc(F)cc3)n2)ccc1OCCCCO[N+](=O)[O-]`, for which the IC50 in the test on HeLa, in the test on A549, in the test on MCF7, in the test on HT-29 and with HepG2 was > 50 µM each time.

In the case of `COc1cc(/C=C/c2cc(/C=C/c3ccc(OCCO[N+](=O)[O-])c(OC)c3)n(-c3ccccc3F)n2)ccc1OCCO[N+](=O)[O-]`, the IC50 in the test with HeLa, in the test with A549, in the test on MCF7, in the test on HT-29 and in the test with HepG2 was > 50 µM in each case.

For `COc1cc(/C=C/c2cc(/C=C/c3ccc(OCCCCO[N+](=O)[O-])c(OC)c3)n(-c3ccccc3F)n2)ccc1OCCCCO[N+](=O)[O-]`, the IC50 in the test with HeLa, in the test with A549, in the test on MCF7, in the test with HT-29 and in the test with HepG2 was > 50 µM throughout.

For the molecule `COc1cc(/C=C/c2cc(/C=C/c3ccc(OCCCO[N+](=O)[O-])c(OC)c3)n(-c3ccc(F)cc3)n2)ccc1OCCCO[N+](=O)[O-]`, the IC50 with HeLa, with A549, in the test on MCF7, with HT-29 and with HepG2 was > 50 µM in each case.

As to `COc1cc(/C=C/c2cc(/C=C/c3ccc(OCCCCO[N+](=O)[O-])c(OC)c3)n(Cc3ccccc3)n2)ccc1OCCCCO[N+](=O)[O-]`, the IC50 in the test with HeLa, in the test with A549, with MCF7, with HT-29 and in the test with HepG2 was > 50 µM each time.

Consider `COc1cc(/C=C/c2cc(/C=C/c3ccc(OCCO[N+](=O)[O-])c(OC)c3)n(Cc3ccccc3)n2)ccc1OCCO[N+](=O)[O-]`, for which the IC50 in the test with HeLa, with A549, in the test with MCF7, with HT-29 and with HepG2 was > 50 µM each time.

For the origin of these results see ChEMBL document CHEMBL6114997, “New curcumin derivative induces ferroptosis in MCF-7 cells through activating SLC7A11/GPX4 axis” (Bioorg Med Chem, 2025).
